US20160367623A1, “AGONISTS OF GUANYLATE CYCLASE USEFUL FOR THE TREATMENT OF GASTROINTESTINAL DISORDERS, INFLAMMATION, CANCER AND OTHER DISORDERS” (priority 2015, published 2016)
Bridge positions count the residues as written; N and C are the ends. Ends that are not written are not given here.

System: patients with chronic idiopathic constipation (CIC)
Assay: Second phase 3 CIC trial: CSBM weekly responders by week
Assay type: in vivo, human
Conditions: MRA
Source text: Both trials include a two-week pre-treatment baseline period, a 12-week treatment period, and a two-week post-treatment period. The phase 3 CIC program was designed to support regulatory submission in the U. S.
The primary endpoint for both trials is the proportion of durable overall responders (%), which is the current regulatory endpoint required for U.S. approval in CIC. The FDA has defined a durable overall responder as a patient who fulfills both ≧3 complete spontaneous bowel movements (CSBMs) per week plus an increase of ≧1 CSBM from baseline in the same week, for 9 out of the 12 treatment weeks. In addition, the same patient must be an overall responder for at least 3 of the last 4 treatment weeks in order to be considered a durable overall responder.
Patients were selected using Rome 3 criteria modified for CIC and had (1) fewer than 3 defecations per week, (2) loose stools occurring rarely without laxatives, (3) inadequate criteria for irritable bowel syndrome with constipation (IBS-C), and (4) at least two of the following applied to at least 25% of defecations: (a) straining during evacuation, (b) lumpy or hard stools, (c) sensation of anorectal obstruction or blockage. Rome 3 requires patients to fulfill the criteria for the last 3 months with symptom onset at least 6 months prior to diagnosis.

[1] = Post-Treatment Week 13, 3 mg, All Randomized (includes Duplicate Patients)
[2] = Post-Treatment Week 13, 3 mg, ITT Population
[3] = Post-Treatment Week 13, 3 mg, ITT Population-Excluding Duplicate Patients
[4] = Post-Treatment Week 13, 6 mg, All Randomized (includes Duplicate Patients)
[5] = Post-Treatment Week 13, 6 mg, ITT Population
[6] = Post-Treatment Week 13, 6 mg, ITT Population-Excluding Duplicate Patients
[7] = Post-Treatment Week 13, Active Combined, All Randomized (includes Duplicate Patients)
[8] = Post-Treatment Week 13, Active Combined, ITT Population-Excluding Duplicate Patients
[9] = Post-Treatment Week 13, Active Combined, ITT Population
[10] = Post-Treatment Week 14, 3 mg, All Randomized (includes Duplicate Patients)
[11] = Post-Treatment Week 14, 3 mg, ITT Population
[12] = Post-Treatment Week 14, 3 mg, ITT Population-Excluding Duplicate Patients
[13] = Post-Treatment Week 14, 6 mg, ITT Population
[14] = Post-Treatment Week 14, 6 mg, ITT Population-Excluding Duplicate Patients
[15] = Post-Treatment Week 14, Active Combined, ITT Population-Excluding Duplicate Patients
[16] = Post-Treatment Week 14, Active Combined, ITT Population
[17] = Week 1, 3 mg, ITT Population-Excluding Duplicate Patients
[18] = Week 1, 6 mg, ITT Population-Excluding Duplicate Patients
[19] = Week 1, Active Combined, ITT Population-Excluding Duplicate Patients
[20] = Week 1, Active Combined, ITT Population
[21] = Week 2, 3 mg, ITT Population-Excluding Duplicate Patients

## Asn^1-Asp^2-Glu^3-Cys^4-Glu^5-Leu^6-Cys^7-Val^8-Asn^9-Val^10-Ala^11-Cys^12-Thr^13-Gly^14-Cys^15-Leu^16 (NDECELCVNVACTGCL; disulfide 4-12, 7-15) [Plecanatide, uroguanylin analogue, guanylate cyclase-C agonist; (C4:C12, C7:C15) bicycle peptide]
Post-Treatment Week 13, 3 mg minus placebo, All Randomized (includes Duplicate Patients)
  Difference in Proportions (adjusted): 0.042
Post-Treatment Week 13, 3 mg vs placebo, All Randomized (includes Duplicate Patients)
  Odds Ratio (adjusted): 0.796
[1]
  CSBM Weekly Responders, n (%): 125 (26.6) n (%)
  Non-Responders, n (%): 345 (73.4) n (%)
[2]
  CSBM Weekly Responders, n (%): 121 (27.3) n (%)
  Non-Responders, n (%): 322 (72.7) n (%)
[3]
  CSBM Weekly Responders, n (%): 119 (27.4) n (%)
  Non-Responders, n (%): 315 (72.6) n (%)
Post-Treatment Week 13, 6 mg minus placebo, All Randomized (includes Duplicate Patients)
  Difference in Proportions (adjusted): 0.003
Post-Treatment Week 13, 6 mg vs placebo, All Randomized (includes Duplicate Patients)
  Odds Ratio (adjusted): 0.981
[4]
  CSBM Weekly Responders, n (%): 107 (22.7) n (%)
  Non-Responders, n (%): 364 (77.3) n (%)
[5]
  CSBM Weekly Responders, n (%): 106 (23.6) n (%)
  Non-Responders, n (%): 343 (76.4) n (%)
[6]
  CSBM Weekly Responders, n (%): 105 (23.7) n (%)
  Non-Responders, n (%): 338 (76.3) n (%)
[7]
  CSBM Weekly Responders, n (%): 232 (24.7) n (%)
  Non-Responders, n (%): 709 (75.3) n (%)
Post-Treatment Week 13, 3 mg minus placebo, ITT Population-Excluding Duplicate Patients
  Difference in Proportions (adjusted): 0.045
Post-Treatment Week 13, 3 mg minus placebo, ITT Population
  Difference in Proportions (adjusted): 0.044
Post-Treatment Week 13, 3 mg vs placebo, ITT Population-Excluding Duplicate Patients
  Odds Ratio (adjusted): 0.786
Post-Treatment Week 13, 3 mg vs placebo, ITT Population
  Odds Ratio (adjusted): 0.792
Post-Treatment Week 13, 6 mg minus placebo, ITT Population-Excluding Duplicate Patients
  Difference in Proportions (adjusted): 0.008
Post-Treatment Week 13, 6 mg minus placebo, ITT Population
  Difference in Proportions (adjusted): 0.007
Post-Treatment Week 13, 6 mg vs placebo, ITT Population-Excluding Duplicate Patients
  Odds Ratio (adjusted): 0.954
Post-Treatment Week 13, 6 mg vs placebo, ITT Population
  Odds Ratio (adjusted): 0.962
[8]
  CSBM Weekly Responders, n (%): 224 (25.5) n (%)
  Non-Responders, n (%): 653 (74.5) n (%)
[9]
  CSBM Weekly Responders, n (%): 227 (25.4) n (%)
  Non-Responders, n (%): 665 (74.6) n (%)
Post-Treatment Week 14, 3 mg minus placebo, All Randomized (includes Duplicate Patients)
  Difference in Proportions (adjusted): 0.019
Post-Treatment Week 14, 3 mg vs placebo, All Randomized (includes Duplicate Patients)
  Odds Ratio (adjusted): 0.886
[10]
  CSBM Weekly Responders, n (%): 95 (20.2) n (%)
  Non-Responders, n (%): 375 (79.8) n (%)
[11]
  CSBM Weekly Responders, n (%): 94 (21.2) n (%)
  Non-Responders, n (%): 349 (78.8) n (%)
[12]
  CSBM Weekly Responders, n (%): 93 (21.4) n (%)
  Non-Responders, n (%): 341 (78.6) n (%)
Post-Treatment Week 14, 6 mg minus placebo, All Randomized (includes Duplicate Patients)
  Difference in Proportions (adjusted): −0.003
Post-Treatment Week 14, 6 mg vs placebo, All Randomized (includes Duplicate Patients)
  Odds Ratio (adjusted): 1.020
Post-Treatment Week 14, 6 mg, All Randomized (includes Duplicate Patients)
  CSBM Weekly Responders, n (%): 85 (18.0) n (%)
[13]
  CSBM Weekly Responders, n (%): 83 (18.5) n (%)
  Non-Responders, n (%): 366 (81.5) n (%)
[14]
  CSBM Weekly Responders, n (%): 82 (18.5) n (%)
  Non-Responders, n (%): 361 (81.5) n (%)
Post-Treatment Week 14, Active Combined, All Randomized (includes Duplicate Patients)
  CSBM Weekly Responders, n (%): 180 (19.1) n (%)
Post-Treatment Week 14, 3 mg minus placebo, ITT Population-Excluding Duplicate Patients
  Difference in Proportions (adjusted): 0.024
Post-Treatment Week 14, 3 mg minus placebo, ITT Population
  Difference in Proportions (adjusted): 0.026
Post-Treatment Week 14, 3 mg vs placebo, ITT Population-Excluding Duplicate Patients
  Odds Ratio (adjusted): 0.860
Post-Treatment Week 14, 3 mg vs placebo, ITT Population
  Odds Ratio (adjusted): 0.852
Post-Treatment Week 14, 6 mg minus placebo, ITT Population-Excluding Duplicate Patients
  Difference in Proportions (adjusted): −0.005
Post-Treatment Week 14, 6 mg minus placebo, ITT Population
  Difference in Proportions (adjusted): −0.002
Post-Treatment Week 14, 6 mg vs placebo, ITT Population-Excluding Duplicate Patients
  Odds Ratio (adjusted): 1.032
Post-Treatment Week 14, 6 mg vs placebo, ITT Population
  Odds Ratio (adjusted): 1.011
[15]
  CSBM Weekly Responders, n (%): 175 (20.0) n (%)
  Non-Responders, n (%): 702 (80.0) n (%)
[16]
  CSBM Weekly Responders, n (%): 177 (19.8) n (%)
  Non-Responders, n (%): 715 (80.2) n (%)
Week 1, 3 mg minus placebo, All Randomized (includes Duplicate Patients)
  Difference in Proportions (adjusted): 0.123
Week 1, 3 mg vs placebo, All Randomized (includes Duplicate Patients)
  Odds Ratio (adjusted): 0.468
Week 1, 3 mg, All Randomized (includes Duplicate Patients)
  Non-Responders, n (%): 342 (72.8) n (%)
Week 1, 3 mg, ITT Population
  CSBM Weekly Responders, n (%): 121 (27.3) n (%)
  Non-Responders, n (%): 322 (72.7) n (%)
[17]
  CSBM Weekly Responders, n (%): 121 (27.9) n (%)
  Non-Responders, n (%): 313 (72.1) n (%)
Week 1, 6 mg minus placebo, All Randomized (includes Duplicate Patients)
  Difference in Proportions (adjusted): 0.106
Week 1, 6 mg vs placebo, All Randomized (includes Duplicate Patients)
  Odds Ratio (adjusted): 0.513
Week 1, 6 mg, All Randomized (includes Duplicate Patients)
  Non-Responders, n (%): 351 (74.5) n (%)
Week 1, 6 mg, ITT Population
  CSBM Weekly Responders, n (%): 114 (25.4) n (%)
  Non-Responders, n (%): 335 (74.6) n (%)
[18]
  CSBM Weekly Responders, n (%): 114 (25.7) n (%)
  Non-Responders, n (%): 329 (74.3) n (%)
Week 1, Active Combined, All Randomized (includes Duplicate Patients)
  Non-Responders, n (%): 693 (73.6) n (%)
Week 1, 3 mg minus placebo, ITT Population-Excluding Duplicate Patients
  Difference in Proportions (adjusted): 0.123
Week 1, 3 mg minus placebo, ITT Population
  Difference in Proportions (adjusted): 0.118
Week 1, 3 mg vs placebo, ITT Population-Excluding Duplicate Patients
  Odds Ratio (adjusted): 0.477
Week 1, 3 mg vs placebo, ITT Population
  Odds Ratio (adjusted): 0.488
Week 1, 6 mg minus placebo, ITT Population-Excluding Duplicate Patients
  Difference in Proportions (adjusted): 0.102
Week 1, 6 mg minus placebo, ITT Population
  Difference in Proportions (adjusted): 0.099
Week 1, 6 mg vs placebo, ITT Population-Excluding Duplicate Patients
  Odds Ratio (adjusted): 0.533
Week 1, 6 mg vs placebo, ITT Population
  Odds Ratio (adjusted): 0.539
[19]
  CSBM Weekly Responders, n (%): 235 (26.8) n (%)
  Non-Responders, n (%): 642 (73.2) n (%)
[20]
  CSBM Weekly Responders, n (%): 235 (26.3) n (%)
  Non-Responders, n (%): 657 (73.7) n (%)
Week 2, 3 mg minus placebo, All Randomized (includes Duplicate Patients)
  Difference in Proportions (adjusted): 0.089
Week 2, 3 mg vs placebo, All Randomized (includes Duplicate Patients)
  Odds Ratio (adjusted): 0.582
Week 2, 3 mg, All Randomized (includes Duplicate Patients)
  CSBM Weekly Responders, n (%): 120 (25.5) n (%)
Week 2, 3 mg, ITT Population
  CSBM Weekly Responders, n (%): 112 (25.3) n (%)
  Non-Responders, n (%): 331 (74.7) n (%)
[21]
  CSBM Weekly Responders, n (%): 110 (25.3) n (%)
  Non-Responders, n (%): 324 (74.7) n (%)
